Test results: US20230126447A1, “OCULAR DRUG DEPOT FOR COMPLEMENT-MEDIATED DISORDERS” (priority 2020, published 2023)
Like-named read-outs stand apart in the source and are kept apart here.

Test: Ocular tissue distribution and pharmacokinetics, 7.5 and 15 mg/kg oral, pigmented Dutch Belted rabbits (Example 7)
Format: in vivo
Procedure: For Group 1, two animals/time point were sacrificed via an overdose of sodium pentobarbital at approximately 1, 6, 12, 24, 96, 168, and 240 hours postdose. Blood (approximately 2 mL) was collected from all animals at sacrifice into tubes containing K2EDTA via exsanguination (cardiac puncture).
For Groups 2 through 4, blood (approximately 2 mL) was collected via a jugular vein using a syringe and needle and was transferred into tubes containing K2EDTA at approximately 12 hours after the a.m. dose on Day 15 from the two animals designated for sacrifice at approximately 240 hours after the a.m. dose on Day 15.
For Groups 2 through 4, two animals/group/time point were sacrificed via an overdose of sodium pentobarbital prior to dosing on Day 15 and at approximately 1, 6, 24, 96, 168, and 240 hours after the a.m. dose on Day 15. Blood (approximately 2 mL) was collected from all animals at sacrifice into tubes containing K2EDTA via exsanguination (cardiac puncture).
Blood was maintained on wet ice, in chilled cryoracks, or at approximately 5° C. prior to centrifugation to obtain plasma. Centrifugation began within 1 hour of collection (Deviation). Plasma was placed into 96-well tubes with barcode labels. Plasma was maintained on dry ice prior to storage at approximately −70° C.
At the time of sacrifice, both eyes were enucleated, and the following tissues were collected. Each eye was flash-frozen in liquid nitrogen for 15 to 20 seconds. The enucleated eye was placed on dry ice or stored at approximately −70° C. for at least 2 hours. Within approximately 3 days, the frozen matrices were collected as right and left eyes for each matrix into the specific tube type listed.
At the time of frozen collection, the ocular tissues were rinsed with saline and blotted dry (as appropriate), weighed, and placed on dry ice. All ocular tissues were collected as single samples.

[1] = Dutch Belted, rabbit, Retina (OU), male DB rabbits, Group 1, Day 1, 7.5 mg/kg single oral dose
[2] = Dutch Belted, rabbit, plasma, male DB rabbits, Group 1, Day 1, 7.5 mg/kg single oral dose
[3] = ICB (OU), male DB rabbits, Group 1, Day 1, […] single oral dose
[4] = ICB (OU), male DB rabbits, Group 2, Day 15, […] BID oral (15 mg/kg/day)
[5] = ICB (OU), male DB rabbits, Group 3, Day 15, 15 mg/kg/dose BID oral (30 mg/kg/day)
[6] = Retina (OU), male DB rabbits, Group 1, Day 1, […] single oral dose
[7] = Retina (OU), male DB rabbits, Group 2, Day 15, […] BID oral (15 mg/kg/day)
[8] = Retina (OU), male DB rabbits, Group 3, Day 15, 15 mg/kg/dose BID oral (30 mg/kg/day)
[9] = male, Dutch Belted, rabbit, choroid-retinal pigment epithelium (choroid-RPE), po, 15 mg/kg, Choroid-RPE (OU), male DB rabbits, Group 3, Day 15, 15 mg/kg/dose BID oral (30 mg/kg/day)
[10] = male, Dutch Belted, rabbit, plasma, po, 15 mg/kg, plasma, male DB rabbits, Group 3, Day 15, 15 mg/kg/dose BID oral (30 mg/kg/day)
[11] = male, Dutch Belted, rabbit, plasma, po, […], plasma, male DB rabbits, Group 1, Day 1, […] single oral dose
[12] = male, Dutch Belted, rabbit, plasma, po, […], plasma, male DB rabbits, Group 2, Day 15, […] BID oral (15 mg/kg/day)
[13] = plasma, male DB rabbits, Group 1, Day 1, […] single oral dose
[14] = plasma, male DB rabbits, Group 2, Day 15, […] BID oral (15 mg/kg/day)
[15] = plasma, male DB rabbits, Group 3, Day 15, 15 mg/kg/dose BID oral (30 mg/kg/day)

CC(=O)c1nn(CC(=O)N2C[C@H](F)C[C@H]2C(=O)Nc2cccc(Br)n2)c2ccc(-c3cnc(C)nc3)cc12 [Compound 1, (2S,4R)-1-(2-(3-Acetyl-5-(2-methylpyrimidin-5-yl)-1H-indazol-1-yl)acetyl)-N-(6-bromopyridin-2-yl)-4-fluoropyrrolidine-2-carboxamide]
MRT last [1]: 2.7 h | Tmax [1]: 1 h | Tmax (Dutch Belted, rabbit, Retina (OU), male DB rabbits, Group 3, Day 15, 15 mg/kg/dose BID oral (30 mg/kg/day)): 1 h | MRT last [2]: 2.67 h | Tmax [2]: 1 h | AUC(0-inf) (Dutch Belted, rabbit, plasma, male DB rabbits, Group 1, Day 1, 7.5 mg/kg single oral dose, read-out: AUC0-inf): 1590 ng·h/mL | Tmax (Dutch Belted, rabbit, plasma, male DB rabbits, Group 3, Day 15, 15 mg/kg/dose BID oral (30 mg/kg/day)): 1 h | AUC0-12 [3]: 2560 ng·h/g | AUC(0-24) [3]: 3460 ng·h/g | AUC(0-t) [3]: 3460 ng·h/g | Ctrough [3]: 119 ng/g | DN AUC0-12 [3]: 341 (h*ng/g)/(mg/kg/dose) | DN AUC0-24 [3]: 462 (h*ng/g)/(mg/kg/day) | DN Cmax [3]: 57.9 (ng/g)/(mg/kg/day) | AUC0-12 [4]: 7860 ng·h/g | AUC(0-24) [4]: 11900 ng·h/g | AUC(0-t) [4]: 11900 ng·h/g | Ctrough [4]: 484 ng/g | DN AUC0-12 [4]: 1050 (h*ng/g)/(mg/kg/dose) | DN AUC0-24 [4]: 1580 (h*ng/g)/(mg/kg/day) | DN Cmax [4]: 126 (ng/g)/(mg/kg/day) | AUC0-12 [5]: 13900 ng·h/g | AUC(0-24) [5]: 21300 ng·h/g | AUC(0-t) [5]: 21300 ng·h/g | Ctrough [5]: 780 ng/g | DN AUC0-12 [5]: 925 (h*ng/g)/(mg/kg/dose) | DN AUC0-24 [5]: 1420 (h*ng/g)/(mg/kg/day) | DN Cmax [5]: 136 (ng/g)/(mg/kg/day) | AUC0-12 [6]: 765 ng·h/g | AUC0-240 [6]: 864 ng·h/g | AUC(0-24) [6]: 864 ng·h/g | AUC(0-t) [6]: 765 ng·h/g | Ctrough [6]: 16.5 ng/g | DN AUC0-12 [6]: 102 (h*ng/g)/(mg/kg/dose) | DN AUC0-24 [6]: 115 (h*ng/g)/(mg/kg/day) | DN Cmax [6]: 25.1 (ng/g)/(mg/kg/day) | AUC0-12 [7]: 1710 ng·h/g | AUC0-240 [7]: 6070 ng·h/g | AUC(0-24) [7]: 2450 ng·h/g | AUC(0-t) [7]: 6070 ng·h/g | Ctrough [7]: 80.0 ng/g | DN AUC0-12 [7]: 227 (h*ng/g)/(mg/kg/dose) | DN AUC0-24 [7]: 327 (h*ng/g)/(mg/kg/day) | DN Cmax [7]: 40.8 (ng/g)/(mg/kg/day) | AUC0-12 [8]: 11500 ng·h/g | AUC0-240 [8]: 16100 ng·h/g | AUC(0-24) [8]: 6460 ng·h/g | AUC(0-t) [8]: 16100 ng·h/g | Ctrough [8]: 123 ng/g | DN AUC0-12 [8]: 325 (h*ng/g)/(mg/kg/dose) | DN AUC0-24 [8]: 430 (h*ng/g)/(mg/kg/day) | DN Cmax [8]: 85.7 (ng/g)/(mg/kg/day) | Cmax (male, Dutch Belted, rabbit, choroid-RPE (choroid-retinal pigment epithelium), po, […], Choroid-RPE (OU), male DB rabbits, Group 1, Day 1, […] single oral dose): 726 ng/g | Cmax [9]: 3970 ng/g | half-life [9]: 4570 min | half-life (male, Dutch Belted, rabbit, choroid-retinal pigment epithelium (choroid-RPE), po, […], Choroid-RPE (OU), male DB rabbits, Group 1, Day 1, […] single oral dose): 3530 min | Cmax (male, Dutch Belted, rabbit, choroid-retinal pigment epithelium (choroid-RPE), po, […], Choroid-RPE (OU), male DB rabbits, Group 2, Day 15, […] BID oral (15 mg/kg/day)): 2000 ng/g | Cmax (male, Dutch Belted, rabbit, iris-ciliary body (ICB), po, 15 mg/kg, ICB (OU), male DB rabbits, Group 3, Day 15, 15 mg/kg/dose BID oral (30 mg/kg/day)): 2050 ng/g | Cmax (male, Dutch Belted, rabbit, iris-ciliary body (ICB), po, […], ICB (OU), male DB rabbits, Group 1, Day 1, […] single oral dose): 435 ng/g | Cmax (male, Dutch Belted, rabbit, iris-ciliary body (ICB), po, […], ICB (OU), male DB rabbits, Group 2, Day 15, […] BID oral (15 mg/kg/day)): 943 ng/g | Cmax [10]: 910 ng/mL | half-life [10]: 299 min | AUC(0-t) (male, Dutch Belted, rabbit, plasma, po, 15 mg/kg, plasma, male DB rabbits, Group 3, Day 15, 15 mg/kg/dose BID oral (30 mg/kg/day), read-out: AUC0-12): 3620 ng·h/mL | AUC(0-t) (male, Dutch Belted, rabbit, plasma, po, 15 mg/kg, plasma, male DB rabbits, Group 3, Day 15, 15 mg/kg/dose BID oral (30 mg/kg/day), read-out: AUC0-24): 4010 ng·h/mL | AUC(0-t) (male, Dutch Belted, rabbit, plasma, po, 15 mg/kg, plasma, male DB rabbits, Group 3, Day 15, 15 mg/kg/dose BID oral (30 mg/kg/day), read-out: AUC0-240): 4390 ng·h/mL | AUC(0-t) (male, Dutch Belted, rabbit, plasma, po, 15 mg/kg, plasma, male DB rabbits, Group 3, Day 15, 15 mg/kg/dose BID oral (30 mg/kg/day), read-out: AUC0-t): 4010 ng·h/mL | Cmax [11]: 423 ng/mL | half-life [11]: 361 min | AUC(0-t) (male, Dutch Belted, rabbit, plasma, po, […], plasma, male DB rabbits, Group 1, Day 1, […] single oral dose, read-out: AUC0-12): 1450 ng·h/mL | AUC(0-t) (male, Dutch Belted, rabbit, plasma, po, […], plasma, male DB rabbits, Group 1, Day 1, […] single oral dose, read-out: AUC0-24): 1560 ng·h/mL | AUC(0-t) (male, Dutch Belted, rabbit, plasma, po, […], plasma, male DB rabbits, Group 1, Day 1, […] single oral dose, read-out: AUC0-240): 1680 ng·h/mL | AUC(0-t) (male, Dutch Belted, rabbit, plasma, po, […], plasma, male DB rabbits, Group 1, Day 1, […] single oral dose, read-out: AUC0-t): 1560 ng·h/mL | Cmax [12]: 440 ng/mL | half-life [12]: 293 min | AUC(0-t) (male, Dutch Belted, rabbit, plasma, po, […], plasma, male DB rabbits, Group 2, Day 15, […] BID oral (15 mg/kg/day), read-out: AUC0-12): 1910 ng·h/mL | AUC(0-t) (male, Dutch Belted, rabbit, plasma, po, […], plasma, male DB rabbits, Group 2, Day 15, […] BID oral (15 mg/kg/day), read-out: AUC0-24): 2130 ng·h/mL | AUC(0-t) (male, Dutch Belted, rabbit, plasma, po, […], plasma, male DB rabbits, Group 2, Day 15, […] BID oral (15 mg/kg/day), read-out: AUC0-240): 2370 ng·h/mL | AUC(0-t) (male, Dutch Belted, rabbit, plasma, po, […], plasma, male DB rabbits, Group 2, Day 15, […] BID oral (15 mg/kg/day), read-out: AUC0-t): 2130 ng·h/mL | concentration at 6 h (male, Dutch Belted, rabbit, retina, oral, […] BID, DB rabbits, Day 15, […] BID, read-out: Mean Retina Concentration): 97.9 ng/g | concentration at 24 h (male, Dutch Belted, rabbit, retina, oral, […] BID, DB rabbits, Day 15, […] BID, 24 hr, read-out: Mean Retina Concentration): 44.3 ng/g | concentration at 96 h (male, Dutch Belted, rabbit, retina, oral, […] BID, DB rabbits, Day 15, […] BID, 96 hr, read-out: Mean Retina Concentration): 13.9 ng/g | concentration at 168 h (male, Dutch Belted, rabbit, retina, oral, […] BID, DB rabbits, Day 15, […] BID, 168 hr, read-out: Mean Retina Concentration): 10.7 ng/g | concentration at 240 h (male, Dutch Belted, rabbit, retina, oral, […] BID, DB rabbits, Day 15, […] BID, 240 hr, read-out: Mean Retina Concentration): 7.18 ng/g | concentration at 6 h (male, Dutch Belted, rabbit, retina, oral, […], DB rabbits, Day 1, […] single dose, read-out: Mean Retina Concentration): 27.5 ng/g | concentration at 12 h (male, Dutch Belted, rabbit, retina, oral, […], DB rabbits, Day 1, […] single dose, 12 hr, read-out: Mean Retina Concentration): 16.5 ng/g | Cmax (male, Dutch Belted, rabbit, retina, po, 15 mg/kg, Retina (OU), male DB rabbits, Group 3, Day 15, 15 mg/kg/dose BID oral (30 mg/kg/day)): 1290 ng/g | Cmax (male, Dutch Belted, rabbit, retina, po, […], Retina (OU), male DB rabbits, Group 1, Day 1, […] single oral dose): 188 ng/g | Cmax (male, Dutch Belted, rabbit, retina, po, […], Retina (OU), male DB rabbits, Group 2, Day 15, […] BID oral (15 mg/kg/day)): 306 ng/g | Ctrough [13]: 14.8 ng/mL | DN AUC0-12 [13]: 194 (h*ng/mL)/(mg/kg/dose) | DN AUC0-24 [13]: 208 (h*ng/mL)/(mg/kg/day) | DN Cmax [13]: 56.4 (ng/mL)/(mg/kg/day) | Ctrough [14]: 29.6 ng/mL | DN AUC0-12 [14]: 255 (h*ng/mL)/(mg/kg/dose) | DN AUC0-24 [14]: 284 (h*ng/mL)/(mg/kg/day) | DN Cmax [14]: 58.6 (ng/mL)/(mg/kg/day) | Ctrough [15]: 54.3 ng/mL | DN AUC0-12 [15]: 242 (h*ng/mL)/(mg/kg/dose) | DN AUC0-24 [15]: 267 (h*ng/mL)/(mg/kg/day) | DN Cmax [15]: 60.7 (ng/mL)/(mg/kg/day) | Tolerability, clinical observations (rabbits, single oral […] and BID ≥15 mg/kg/day): well tolerated
